Assays:
[1] = test system: stem-like side-population (SP) cells; test: Sphere-formation assay, self-renewal of side-population cells (FIG. 18-21); assay type: cell-based; settings: SP cells in low-adherence plates, stem-cell selective media, 10 days
Method: FIG. 18 is a group of cell micrographs showing inhibition of self-renewals by selected compounds in a sphere formation assay. Self-renewal of stem-like side-population (SP) cells was measured by a sphere-formation assay. Essentially, side-population cells were sorted by flow cytometry based on Hoechst 33342 dye exclusion as described in our publications. Isolated SP cells were grown in low-adherence plates in stem-cell selective media for 10 days (Singh and Chellappan, 2012, Bora-Singhal et al., 2015 etc). Self-renewal ability of the stem-like cells can be assessed by the formation of spheres under these conditions; non-stem cells cannot self-renew and form spheres.
The assay is conducted for 10 days, and the number of spheres larger than 50 μm in diameter is counted.

[2] = test system: cisplatin-insensitive SP cells from H1650 cells; test: Sphere formation of cisplatin-insensitive SP cells (FIG. 30); assay type: cell-based; settings: YAP1 inhibitors 2 uM, cisplatin 5 uM
Method: One feature of cancer stem cells is their drug resistance. Sphere formation of SP cells from H1650 cells was conduced in the presence of cisplatin; stem-like SP cells can self-renew and form spheres in stem-cell selective media and on low-adherence plates, even in the presence of 5 uM cisplatin (top right image).

[3] = biological target: YAP1:OCT4 (Homo sapiens, UniProt P46937); test: In vitro YAP1:OCT4 ELISA binding assay; settings: YAP1:OCT4 disruption
Method: Activities of Compounds in the In Vitro YAP1:OCT4 ELISA Binding Assay
Selected compounds were assayed in a YAP1:OCT4 binding assay.

[4] = test system: Sox2; test: Western blot of Sox2 expression (FIG. 17); assay type: cell-based; settings: H1650 and A549 cells; 10 uM; 72 hours
Method: (§1) FIG. 17 is a group of gel images showing compounds SR2-046, SR2-051, and SR2-052 reduce Sox2, c-Myc expression in H165 and A549 cells. Cells were treated for 72 hours with the indicated compounds. A western blot showing the reduction of Sox2 expression in H1650 cells and in A549 cells after treatment with 10 uM of the drugs for 72 hours. There was a reduction in the levels of C-myc and phoshodiesterate kinase 2 as well. Western blotting was done using our standard protocols, as published in Bora-Singhal et al., 2015.

[5] = test system: c-Myc; test: Western blot of c-Myc expression (FIG. 17); assay type: cell-based; settings: H1650 and A549 cells; 10 uM; 72 hours
Method: as §1

[6] = test system: phoshodiesterate kinase 2; test: Western blot of phoshodiesterate kinase 2 levels (FIG. 17); assay type: cell-based; settings: 10 uM; 72 hours
Method: as §1

[7] = test system: methotrexate insensitive H146 small-cell lung carcinoma cells; test: Sphere formation of methotrexate-insensitive cells (FIG. 31); assay type: cell-based; settings: YAP1 inhibitors 2 uM, methotrexate 2.5 uM
Method: A similar experiment, where sphere formation of small-cell lung cancer cells, which are insensitive to methotrexate, was inhibited by YAP1 inhibitors. Sphere formation of SP cells from H146 small-cell lung carcinoma cells was conduced in the presence of 2.5 uM methotrexate; stem-like cells can self-renew and form spheres in stem-cell selective media and on low-adherence plates, even in the presence of 2.5 uM methotrexate.

[8] = biological target: T1, binding of Oct4 to YAP1 (Homo sapiens, UniProt P46937); test: Immunoprecipitation-Western blot of Oct4-YAP1 binding (FIG. 15); assay type: cell-based; settings: 5 μM, 72 hours
T1 construct: Lysates were prepared from the cells, and immunoprecipitated with an antibody to OCt4; endogenous in cells; host or cells: A549 and H1650 cells
Method: FIG. 15 is a group of gel images showing peptidomimetic compounds SR2-022, SR2-030, and SR2-033 reduced YAP1-Oct4 interaction as detected by IP-WB. An immunoprecipitation-Western blot experiment was conducted to assess if the indicated compounds could disrupt the binding of Oct4 to YAP1. IP-western blots were conducted using the protocols described in Bora-Singhal et al, 2015. Essentially, cells were treated with 5 μM of the indicated compounds for 72 hours. Lysates were prepared from the cells, and immunoprecipitated with an antibody to OCt4, or a control IgG. Lysates as well as the immunoprecipitates were resoled by a polyacrylamide gel and a western blot was conducted using an antibody to YAP1.

[9] = test system: Sox2; test: Sox2 protein expression, gel images (FIG. 16); assay type: cell-based; settings: adenocarcinoma cells
Excerpt: FIG. 16 is a group of gel images showing Sox2 protein expression was reduced by SR-2033 in adenocarcinoma cells.

[10] = test system: A549 lung adenocarcinoma cells; test: Cytokine array on A549 cells (FIG. 39); assay type: cell-based
Excerpt: FIG. 39 is a graph showing results from a cytokine array performed on A549 cells treated with SR2-033.

[11] = test system: primary cancer associated fibroblasts; test: Cytokine array (FIG. 40); assay type: cell-based

Sequence of YAP1:OCT4 (P46937 whole entry): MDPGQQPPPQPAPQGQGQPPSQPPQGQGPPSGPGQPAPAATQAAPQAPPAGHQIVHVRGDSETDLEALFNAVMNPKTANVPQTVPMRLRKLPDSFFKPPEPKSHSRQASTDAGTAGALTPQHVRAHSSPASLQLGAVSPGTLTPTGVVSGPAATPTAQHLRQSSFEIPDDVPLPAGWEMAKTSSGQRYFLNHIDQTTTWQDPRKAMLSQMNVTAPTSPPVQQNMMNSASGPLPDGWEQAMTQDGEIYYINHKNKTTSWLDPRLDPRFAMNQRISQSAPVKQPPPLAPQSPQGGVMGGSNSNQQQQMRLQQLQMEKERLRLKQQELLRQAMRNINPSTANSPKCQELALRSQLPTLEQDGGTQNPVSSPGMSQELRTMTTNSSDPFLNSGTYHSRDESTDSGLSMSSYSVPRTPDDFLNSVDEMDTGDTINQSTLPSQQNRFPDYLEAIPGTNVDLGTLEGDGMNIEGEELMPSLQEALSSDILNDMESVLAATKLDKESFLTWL
T1 sequence (P46937 whole entry): as above

Structure (SMILES) | IC50 [3] [µM] | Sox2 expression (western blot) [4] | c-Myc expression (western blot) [5] | levels of phoshodiesterate kinase 2 (western blot) [6] | also measured
N.N.[Cl][Pt][Cl] [Cisplatin] | – | – | – | – | number of spheres [1]: no effect; self-renewal (sphere formation) of dissociated cisplatin-insensitive spheres [2]: allowed self-renewal and formation of colonies
COC(=O)[C@H](Cc1ccc(OCc2ccccc2)cc1)NC(=O)CC1CCN(C(=O)c2ccc(NC(=O)OC(C)(C)C)cc2)CC1 [SR2-051, Methyl (S)-3-(4-(benzyloxy)phenyl)-2-(2-(1-(4-((tert-butoxycarbonyl)amino)benzoyl)piperidin-4-yl)acetamido)propanoate] | < 10 | reduce | reduce | reduction | –
CN(Cc1cnc2nc(N)nc(N)c2n1)c1ccc(C(=O)N[C@@H](CCC(=O)O)C(=O)O)cc1 [methotrexate] | – | – | – | – | self-renewal (sphere formation) of dissociated methotrexate-insensitive spheres [7]: allowed self-renewal and formation of colonies
COC(=O)[C@H](Cc1ccc(OCc2ccccc2)cc1)NC(=O)CC1CCN(C(=O)CCCc2ccccc2)CC1 [SR2-046, Methyl (S)-3-(4-(benzyloxy)phenyl)-2-(2-(1-(4-phenylbutanoyl)piperidin-4-yl)acetamido)-propanoate] | < 10 | reduce | reduce | reduction | –
COC(=O)[C@H](Cc1ccc(OCc2ccccc2)cc1)NC(=O)CC1CCN(C(=O)Cc2ccc(NC(=O)OC(C)(C)C)cc2)CC1 [SR2-052, Methyl (S)-3-(4-(benzyloxy)phenyl)-2-(2-(1-(2-(4-((tert-butoxycarbonyl)amino)phenyl)acetyl)piperidin-4-yl)acetamido)propanoate] | < 10 | reduce | reduce | reduction | –
COC(=O)[C@H](Cc1ccc(OCc2ccccc2)cc1)NC(=O)CC1CCN(C(=O)CCc2ccc(C#N)cc2)CC1 [SR2-033, Methyl (S)-3-(4-(benzyloxy)phenyl)-2-(2-(1-(3-(4-cyanophenyl)propanoyl)piperidin-4-yl)acetamido)propanoate] | < 10 | – | – | – | YAP1-Oct4 interaction detected by IP-WB ([8]; A549 cells): completely abolished; YAP1-Oct4 interaction detected by IP-WB ([8]; H1650 cells): significantly reduced; Sox2 protein expression [9]: reduced; levels of secreted cytokines (cytokine array) [10]: altered; levels of secreted cytokines (cytokine array) [11]: altered

Source: US11999695B2, “YAP1 inhibitors that target the interaction of YAP1 with OCT4” (H. LEE MOFFITT CANCER CENTER AND RESEARCH INSTITUTE, INC., priority 2016, dated 2024)
